The text below walks through data of patent publication US8865653B2, “Method of treatment for immunogenic treatment resistant cancer” (Institut Gustave Roussy, priority 2010, dated 2014).

For assay [1], the system named is MCA 205 tumors. The assay is described as follows: qRT-PCR of tumor gene expression after Doxorubicin. Particulars: 2 days after treatment; Mavs, Irf3, Irf1 and Tnf unchanged. The class given is in vivo, mice. On the procedure: 0.8 Million of MCA 205 has been subcutaneously implanted to C57Bl6 mice.
Tumor samples were freshly collected, briefly washed in RPMI1640 media (GIBCO). Tissue samples were cut to a maximum thickness in any one dimension of 0.5 cm, placed in 5 volumes of RNAlater® (SIGMA ALDRICH). Samples can be stored at room temperature if processed for RNA extraction on the same day or stored at 4° C. for less than 1 month. RNA extraction from each tumor (up to 30 mg/sample) was performed using RNeasy Mini Kit (QIAGEN) following the instructions.
Add 20 μL1 of Master mix (dN6 (3 ng/μl), dNTP (1 mM), Buffer (1×), RNAsin (40 U) Superscript® III RT (200 U)) into the processed mRNA sample. Mix was incubated at 50° C. for 1 h and then inactivated at 75° C. for 15 min.
cDNA of each sample was diluted at 1:3 with DNase free water. For each sample, 4 μl of primer and probe TAQMAN (2×), 10 μl of assay mix (20×), 5 μl diluted cDNA were added. qRT-PCR was performed (45 cycles with standard PCR program using StepOnePlus™ system (Applied Biosystems). PPIA was used as endogenous control gene to normalize gene expression for data analysis.

Assay [2] concerns U2OS cells. The assay is described as follows: US Drug library screen: CRT-GFP, HMGB1-GFP, quinacrine. Particulars: 1 μM, 4 h / 24 h / 16 h.
The test system of assay [3] is MCA205 fibrosarcoma. The assay is described as follows: Chemotherapy and Dendrophilin treatment of established MCA205 tumors. It counts as in vivo, mice. As to conditions: doxorubicin intratumorally. On the procedure: (§1) WT or loss-of-function mice were injected in the right flank with 1×10^6 of EL4 or CT26 or MCA205 cells. Mice were then randomly assigned into treatment groups of 4-6 mice each. […] Two and/or four days after chemo treatment, mice were treated with Dendrophilin or LPS (2 μg in 100 μl NaCl per mouse i.v or i.t). […] Tumor growths were monitored every 3-4 days using a caliper.

The subject of assay [4] is CT26 colon cancer. The experiment in a line: Anthracycline chemotherapy of established CT26 colon cancer. Particulars: single intratumoral injection. The class given is in vivo, mice. As for the experimental part:
0.8 million MCA205 or CT26 or TS/A tumor cells were inoculated subcutaneously near the thigh into C57Bl/6 (H-2^b) or BALB/c (H-2^d) mice. Anthracyclines-based chemotherapy was performed in MCA205 and CT26 models by intratumoral injecting DX (2 mM, […]) when tumors reached the size 25-40 mm^2. Radiotherapy was performed by local X-ray irradiation (10 Gy, RT250, Phillips) at the unshielded tumor area when TS/A tumor reached the size 40-60 mm^2.

Assay [5] concerns tumor infiltrating lymphocytes (TILs) of MCA205 tumors. The assay is described as follows: Tumor dissection and flow cytometry of TILs (IFN-γ, IL-17). It counts as in vivo, mice.
Protocol: Tumor burdens were carefully removed, cut into small pieces with scissors within digesting buffer (400 U/ml Collagenase IV and 150 U/ml DNase I in RPMI1640) and incubated for 30 min at 37° C. Single cell suspension was obtained by grinding the digested tissue and filtering through 70 μM cell strainer. […] LIVE/DEAD Fixable Dead Cell Stain Kit was used to distinguish live and dead cells. For intracellular staining, freshly isolated cells were treated with, 50 ng/ml PMA, 1 μg/ml ionomycin and Golgi-stop (BD Pharmingen), 4 hrs, 37° C. in RPMI containing 2% mouse serum (Janvier, France). Cells were then washed with PBS and stained with anti-IFN-γ (PE-cy7) and anti-IL-17 (PE) using BD Cytofix/Cytoperm™ Kit following the instructions.
In assay [6] the test system is MCA205 tumors. The assay is described as follows: Gene expression assays in tumors (TaqMan RT-PCR) 8 days after DX. The class given is in vivo, mice. Particulars: 8 days post-treatment, quantitative RT-PCR.
Protocol: Whole RNA was extracted using RNeasy Mini Kit, QIAGEN from pieces of tumor homogenates. 5 μg of RNA from each sample were reverse-transcribed using Quantitect Reverse Transcription Kit (QIAGEN). Gene expression assays were performed with TaqMan® 96 well Plates customized to test cytokines, chemokines as well as transcription factors using StepOnePlus™ Real-Time PCR System. PPIA was chosen as the endogenous control to perform normalization between different samples.
For assay [7], the system named is MCA205 cells. The experiment in a line: In vivo anti-tumor vaccination with treated MCA205 cells (Example 3). As to conditions: s.c. injection, rechallenge with live tumor cells.
Protocol: (F) MCA205 cells have been used for tumor vaccination in vivo. […] The mice have been rechallenged after 6 days with living cells and the tumor growth is depicted in the survival plot (n=10).
Tumor growth was evaluated for at least 50 days.
The subject of assay [8] is EL4 thymoma. The experiment in a line: Chemotherapy and Dendrophilin treatment of established EL4 tumors. It counts as in vivo, mice. As to conditions: oxaliplatin 5 mg per kg i.p. As for the experimental part:
as §1

For assay [9], the system named is CT26 overexpressing LC3-GFP. The experiment in a line: Induction of autophagy in vivo, LC3-GFP redistribution. Set-up: species or system mice. Particulars: i.v., tumors withdrawn 48 hours post-therapy. On the procedure:
After 8 days of tumor implantation (CT26 mouse colon cancer genetically modified to overexpress LC3-GFP in BALB/c immunocompetent mice), oxaliplatin or mitoxanthrone was inoculated systemically (i.v.). Tumors were withdrawn at 48 hours post-therapy and immunofluorescence stainings were performed on frozen sections of tumor tissues to visualize nuclei (in Hoechst blue), and autophagosomes in green (LC3-GFP). […] The lower panel is a graph summarizing enumeration of autophagosomes positive cells in 10 independent sections per tumor and animal (each dot represents one tumor). Statistical analyses were performed with Anova test (Fisher's exact method) with significant results at p<0.05.

Assay [10] concerns eIF2α. The assay is described as follows: Immunoblotting of eIF2α / PERK phosphorylation. The class given is cell-based. The source says: (E) The phosphorylation status of eIF2α has been assessed by immunoblotting against the phosphoneoepitope Ser51 of eIF2α by means of a monoclonal antibody. A polyclonal antibody has been used to visualize whole eIF2α protein levels.
The subject of assay [11] is U2OS cells. It counts as cell-based. As for the experimental part: The data is depicted as representative images (A) and (B) normalized Bax-GFP granularity values.
The data represents mean±s.e.m. of quadruplicates from a representative experiment. […] 16 h after treatment, cell death was monitored by simultaneous staining with 3,3 dihexyloxacarbocyanine iodide (DiOC6(3)) and propidium iodide (PI), and the percentage of dying (DiOC6(3)^low PI^−, open bars) and dead (DiOC6(3)^low PI^+, closed bars) cells was determined by cytofluorometry.
Cell death was quantified by cytofluorometric analysis using a FACS Vantage (Becton Dickinson, Mountain View, USA) as described previously (REF). Thus, cells were stained with 40 nM 3,3 dihexyloxacarbocyanine iodide (DiOC6(3); Molecular Probes, Eugene, Oreg., USA) for 30 min at 37° C. and concomitantly with 1 μg/ml propidium iodide (PI; Sigma Aldrich) for 30 min at 37° C. to determine the mitochondrial transmembrane potential. Data were statistically evaluated using CellQuest Pro software (Becton Dickinson, Mountain View, USA).

Assay [12] deals with U2OS cells. The assay is described as follows: Analysis of surface exposed CRT (HaloTag ligand, anti-CRT immune staining).
In assay [13] the test system is U2OS cells stably expressing CRT-GFP. The experiment in a line: CRT-GFP redistribution (granularity, nuclear shape) by automated microscopy; ICCB library screen. Particulars: 1 μM MTX, 150 μM CDDP, 300 μM OXP. It counts as cell-based, human. As for the experimental part:
The data is depicted as mean±s.e.m. of quadruplicates from a representative experiment. (C) Immunofluorescene was conducted on CRT-GFP expressing cells by means of staining with anti-CRT antibody and subsequent confocal image acquisition. (D) CRT has been cloned in frame n-terminal to a HaloTag® sequence followed by a KDEL ER retention signal. (E) The impermeable HaloTag® ligand forms covalent bonds exclusively with surface exposed HaloTag®-CRT fusion protein, whereas intracellular HaloTag®-CRT remains undetected.
Compounds from the ICCB known bioactive compounds library have been tested for their capacity to induce CRT-exposure. […] The cells were incubated for 4 h and were acquired by means of automated microscopy. The data is depicted as dot plots and representative images (B).
After washing with PBS 4 viewfields per well were acquired by means of a BD pathway 855 automated microscope.

In assay [14] the test system is U2OS cells. The experiment in a line: ATP release assays (quinacrine, luciferin-based). It counts as cell-based, human. Particulars: 16 h post-treatment, intracellular and extracellular ATP. On the procedure:
In short, cells were labeled with 1 μM quinacrine in Krebs-Ringer solution (125 mM NaCl, 5 mM KCl, 1 mM MgSO4, 0.7 mM KH2PO4, 2 mM CaCl2, 6 mM glucose and 25 mM Hepes, pH 7.4) for 30 min at 37° C.
After incubation in quinacrine solution (as described above), cells were rinsed and resuspended in PBS containing 1 μg/ml PI. The samples were analyzed by means of a FACS Vantage (Becton Dickinson) and the data was statistically evaluated using the CellQuest Pro software (BD Biosciences).
After cell death induction, extracellular ATP was measured by luciferin-based ENLITEN ATP Assay (Promega, Madison, USA) following the manufacturer's instructions. Intracellular ATP was measured using an ATP Assay kit (Calbiochem, Darmstadt, Germany) based on luciferin-luciferase conversion following the manufacturer's instructions. For assessment of the chemoluminescent signal, the plates were read in a Fluostar luminometer (BMG Labtech).

With `COc1cccc2c1C(=O)c1c(O)c3c(c(O)c1C2=O)C[C@@](O)(C(=O)CO)C[C@@H]3O[C@H]1C[C@H](N)[C@H](O)[C@H](C)O1` [DX, doxorubicin], the “genes involved in viral recognition and anti-viral immune responses, RT-PCR” value in [1] is given as “specifically up-regulated”. The “rank in screen for exposing CRT and emitting HMGB1 and ATP” value in assay [2] was “most potent in exposing CRT, and emitting HMGB1 and ATP”. The “antitumor effects of chemotherapy alone” value in assay [3] is recorded as “only mild effects”. The tumor growth entry in [4] is recorded as “significantly retarded tumor growth”. In addition, the “increase in the proportions of IFN-γ and IL-17 producing TILs” value in assay [5] (DX compared with PBS, flow cytometry, day 8) is reported as 3 fold. Further, in assay [5] (MCA205, post-chemotherapy), the “IFN-γ production by CD8+ and CD4+ TILs and IL-17 production by γδ TILs” value is listed as “substantially enhanced”. The “Eomes, Tbx21 (T-bet) and IFN-γ expression increase, DX versus PBS-treated tumors” value in assay [6] is 4-5 fold.
As to `O=C1[O][Pt]2([NH][C@@H]3CCCC[C@H]3[NH]2)[O]C1=O` [OXP, oxaliplatin], the “protective anticancer immune response after vaccination with drug-treated MCA205 cells” value in assay [7] is listed as “readily induce such a tumor-protective response”. In addition, the “antitumor effects of chemotherapy alone” value in assay [8] is “only mild effects”. Further, the “redistribution of LC3-GFP in autophagosomes in tumors” value in [9] is given as “Redistribution of LC3-GFP in autophagosomes can be visualized post-therapy”. Further, the “eIF2α phosphorylation on serine 51” value in assay [10] (phospho-neoepitope-specific antibody) is given as “much more efficient than CDDP”. Also, the “activating phosphorylation of PERK” value in [10] (shortly after treatment) is recorded as “detectable shortly after treatment with OXP”. Also, in assay [11] (short-term experiments, loss of the mitochondrial transmembrane potential ΔΨm, read-out: IC50, imminent cell death), the IC50 is around 600 µM. The “mitochondrial perturbations (ΔΨm dissipation, Bax-GFP relocation)” value in [11] (used at their IC50) was “induced similar mitochondrial perturbations”. Moreover, the “surface exposure of CRT-HaloTag” value in [12] (cell-impermeable HaloTag ligand, microscopy and cytofluorometry) is given as “unless they were treated with immunogenic cell death inducers such as OXP”. For the same compound, in assay [12] (non-permeabilized CRT-GFP cells), the “surface immunofluorescence staining of CRT” value is “actually extruded CRT”. For the same compound, the “CRT-GFP granularity (relocation to peripheral granular distribution)” value in assay [13] was “only observed after treatment of the cells with MTX or OXP”. In addition, the ATP release result in assay [14] is “induced ATP release”.
